Like-named read-outs stand apart in the source and are kept apart here.
Assays:
Myo1e = assay: Biomarkers validation by q-pcr in precision cut liver slices: Myo1e expression
Protocol: (§1) 23-weeks old male C57BL/6 mice were obtained from Harlan (Horst, The Netherlands). Animals were kept for 1 week at a housing temperature of 22°C and at a relative humidity of 30-70%. The lighting cycle was 12-h light and 12-h dark. At the age of 24 weeks animals were sacrificed by an overdose of isoflurane. The treatment protocol was approved by the Ethical Committee for Animal Experiments at Wageningen University.
(§2) Immediately after the animals were killed the liver was perfused with PBS and placed in ice-cold Krebs-Henseleit buffer (KHB) (pH 7.4, supplemented with 11 mM glucose). Liver tissue was transported to the laboratory within approximately 30 min and cylindrical liver cores were produced using a surgical biopsy punch with diameter of 5 mm (KAI, SynErgo Europe, Romania). Liver cores were placed in a Krumdieck tissue slicer (Alabama Research and Development, Munford, AL) filled with ice-cold KHB aerated with carbogen and supplemented with 11 mM glucose. Precesion cut liver slices (PCLS) with a diameter of 5 mm, a thickness of 0.2 mm and a weight of approximately 10 mg were prepared. Immediately after preparation, slices were transferred into culture plates filled with pre-warmed (37 degrees C) Williams E medium (WEM). Three liver slices were pre-cultured in one well of the 6-well plate filled with 4 ml of WEM for one hour with continuous shaking (70 rpm). Incubations were performed in an oxygen controlled incubator (Galaxy 48 R New Brunswick, Nijmegen, the Netherlands) at 80% of oxygen; 5% CO2 and the remaining gas volume was filled up to […] with N2. After one hour of pre-incubation, media were removed and replaced with fresh media containing test compounds or appropriate solvents. After incubations, samples were snap-frozen in liquid nitrogen and stored in -80 °C for further analysis. Samples dedicated to histology were stored in 4 % formaldehyde at room temperature.
(§3) PCLS were incubated at the same conditions as described above. Slices were exposed for 24 and 48 hours to one concentration of the tested compounds or controls. Concentrations used in the exposure experiments were preselected in the dose selection experiments for each drug individually. […] For the necrotic compounds: 1000 uM acetaminophen, 5 µM paraquat and 1000 uM isoniazid. Liver slices obtained from five mice were used in five toxic compound or control exposure experiments performed at the same time. Dose selection experiments and exposure experiments were performed at different days. Therefore, ATP, LDH, and protein assays were performed again for the exposure experiments to confirm that the selected doses did also not affect slice viability in these experiments.
(§4) In further studies, expression of ten candidate biomarkers in PCLS was analyzed by q-pcr using the Biorad CFX96 TM Real-Time Detection System (Bio-Rad, Veenendaal, The Netherlands) with the following cycling conditions: 15 min 95°C followed by 40 cycles of 15s 95 °C and 1 min 60 °C. Reactions were performed in 10 µl and contained 20 ng cDNA, 1x TaqMan PCR Master Mix (Applied Biosystems, Foster City, CA), and depending on the analysed gene, 250 nM probe and 900 nM primer (for actin b) or 1xTaqMan gene expression assay (for the remaining genes) (Applied Biosystems, foster City, CA).

Parp16 = assay: Biomarkers validation by q-pcr in precision cut liver slices: Parp16 expression
Protocol: as §1, §2, §3, §4

Nme6 = assay: Biomarkers validation by q-pcr in precision cut liver slices: Nme6 expression
Protocol: as §1, §2, §3, §4

ABCG5 = assay: Biomarkers validation by q-pcr in precision cut liver slices: ABCG5 expression
Protocol: as §1, §2, §3, §4

ABCG8 = assay: Biomarkers validation by q-pcr in precision cut liver slices: ABCG8 expression
Protocol: as §1, §2, §3, §4

Bcl2l11 = assay: Biomarkers validation by q-pcr in precision cut liver slices: Bcl2l11 expression
Protocol: as §1, §2, §3, §4

BAAT = assay: Biomarkers validation by q-pcr in precision cut liver slices: BAAT expression
Protocol: as §1, §2, §3, §4

KLF15 = assay: Biomarkers validation by q-pcr in precision cut liver slices: KLF15 expression
Protocol: as §1, §2, §3, §4

SERPINE1 = assay: Biomarkers validation by q-pcr in precision cut liver slices: SERPINE1 expression
Protocol: as §1, §2, §3, §4

Mras = assay: Biomarkers validation by q-pcr in precision cut liver slices: Mras expression
Protocol: as §1, §2, §3, §4

PCLS = assay: Cytotoxicity analysis - dose selection experiments (LDH, ATP, protein assay)
Protocol: as §1, §2, §3

With NNC(=O)c1ccncc1 [ISONZ, isoniazid] the “*fold change 1, gene expression level Myo 1e” value (Myo1e; male, C57BL/6, mouse) was 1,5, the “*fold change 2, gene expression level Myo 1e” value (Myo1e; male, C57BL/6, mouse) was 1,3 and the “*fold change 3, gene expression level Myo 1e” value (Myo1e; male, C57BL/6, mouse) was 1,3. For the same molecule, the “*fold change 4, gene expression level Myo 1e” value (Myo1e; male, C57BL/6, mouse) was -1,3, the “*fold change 5, gene expression level Myo 1e” value (Myo1e; male, C57BL/6, mouse) was 1,1 and the “*fold change 1, gene expression level Parp 16” value (Parp16; male, C57BL/6, mouse) was -1,0. For the same molecule, the “*fold change 2, gene expression level Parp 16” value (Parp16; male, C57BL/6, mouse) was -1,0, the “*fold change 3, gene expression level Parp 16” value (Parp16; male, C57BL/6, mouse) was 1,2 and the “*fold change 4, gene expression level Parp 16” value (Parp16; male, C57BL/6, mouse) was -2,3. For the same molecule, the “*fold change 5, gene expression level Parp 16” value (Parp16; male, C57BL/6, mouse) was -1,8, the “*fold change 1, gene expression level Nme6” value (Nme6; male, C57BL/6, mouse) was 1,3 and the “*fold change 2, gene expression level Nme6” value (Nme6; male, C57BL/6, mouse) was 1,2. The “*fold change 3, gene expression level Nme6” value (Nme6; male, C57BL/6, mouse) was 1,1, the “*fold change 4, gene expression level Nme6” value (Nme6; male, C57BL/6, mouse) was -1,3 and the “*fold change 5, gene expression level Nme6” value (Nme6; male, C57BL/6, mouse) was -1,1. The “*fold change 1, gene expression level ABCG5” value (ABCG5; male, C57BL/6, mouse) was 2,0, the “*fold change 2, gene expression level ABCG5” value (ABCG5; male, C57BL/6, mouse) was 3,0 and the “*fold change 3, gene expression level ABCG5” value (ABCG5; male, C57BL/6, mouse) was 1,1. For the same molecule, the “*fold change 4, gene expression level ABCG5” value (ABCG5; male, C57BL/6, mouse) was 2,0, the “*fold change 5, gene expression level ABCG5” value (ABCG5; male, C57BL/6, mouse) was 2,0 and the “*fold change 1, gene expression level ABCG8” value (ABCG8; male, C57BL/6, mouse) was 2,1. The “*fold change 2, gene expression level ABCG8” value (ABCG8; male, C57BL/6, mouse) was 2,8, the “*fold change 3, gene expression level ABCG8” value (ABCG8; male, C57BL/6, mouse) was 1,0 and the “*fold change 4, gene expression level ABCG8” value (ABCG8; male, C57BL/6, mouse) was 2,3. For the same molecule, the “*fold change 5, gene expression level ABCG8” value (ABCG8; male, C57BL/6, mouse) was 1,9, the “*fold change 1, gene expression level Bcl2111” value (Bcl2l11; male, C57BL/6, mouse) was 1,9 and the “*fold change 2, gene expression level Bcl2111” value (Bcl2l11; male, C57BL/6, mouse) was 1,7. For the same molecule, the “*fold change 3, gene expression level Bcl2111” value (Bcl2l11; male, C57BL/6, mouse) was 1,3, the “*fold change 4, gene expression level Bcl2111” value (Bcl2l11; male, C57BL/6, mouse) was -1,2 and the “*fold change 5, gene expression level Bcl2111” value (Bcl2l11; male, C57BL/6, mouse) was -1,2. The “*fold change 1, gene expression level BAAT” value (BAAT; male, C57BL/6, mouse) was 1,8, the “*fold change 2, gene expression level BAAT” value (BAAT; male, C57BL/6, mouse) was 1,7 and the “*fold change 3, gene expression level BAAT” value (BAAT; male, C57BL/6, mouse) was 1,1. For the same molecule, the “*fold change 4, gene expression level BAAT” value (BAAT; male, C57BL/6, mouse) was -1,3, the “*fold change 5, gene expression level BAAT” value (BAAT; male, C57BL/6, mouse) was 1,3 and the “*fold change 1, gene expression level KLF15” value (KLF15; male, C57BL/6, mouse) was 1,2. The “*fold change 2, gene expression level KLF15” value (KLF15; male, C57BL/6, mouse) was 2,4, the “*fold change 3, gene expression level KLF15” value (KLF15; male, C57BL/6, mouse) was 1,0 and the “*fold change 4, gene expression level KLF15” value (KLF15; male, C57BL/6, mouse) was 1,1. The “*fold change 5, gene expression level KLF15” value (KLF15; male, C57BL/6, mouse) was 1,2, the “*fold change 1, gene expression level SERPINE1” value (SERPINE1; male, C57BL/6, mouse) was 5,4 and the “*fold change 2, gene expression level SERPINE1” value (SERPINE1; male, C57BL/6, mouse) was 1,9. The “*fold change 3, gene expression level SERPINE1” value (SERPINE1; male, C57BL/6, mouse) was 1,4, the “*fold change 4, gene expression level SERPINE1” value (SERPINE1; male, C57BL/6, mouse) was -1,4 and the “*fold change 5, gene expression level SERPINE1” value (SERPINE1; male, C57BL/6, mouse) was -2,9. For the same molecule, the “*fold change 1, gene expression level Mras” value (Mras; male, C57BL/6, mouse) was 1,7, the “*fold change 2, gene expression level Mras” value (Mras; male, C57BL/6, mouse) was -1,1 and the “*fold change 3, gene expression level Mras” value (Mras; male, C57BL/6, mouse) was 1,3. For the same molecule, the “*fold change 4, gene expression level Mras” value (Mras; male, C57BL/6, mouse) was -1,3, the “*fold change 5, gene expression level Mras” value (Mras; male, C57BL/6, mouse) was -1,3 and the “highest concentration that did not cause significant increase of toxicity” value (PCLS; male, C57BL/6, mouse) was 1000 µM.

In the case of C[n+]1ccc(-c2cc[n+](C)cc2)cc1 [PQ, paraquat], the “*fold change 1, gene expression level Myo 1e” value (Myo1e) is reported as 1,1, the “*fold change 2, gene expression level Myo 1e” value (Myo1e) is reported as 1,4 and the “*fold change 3, gene expression level Myo 1e” value (Myo1e) is reported as 1,1. The “*fold change 4, gene expression level Myo 1e” value (Myo1e) was 1,2, the “*fold change 5, gene expression level Myo 1e” value (Myo1e) was 1,2 and the “*fold change 1, gene expression level Parp 16” value (Parp16) was 1,6. The “*fold change 2, gene expression level Parp 16” value (Parp16) was 1,0, the “*fold change 3, gene expression level Parp 16” value (Parp16) was 1,0 and the “*fold change 4, gene expression level Parp 16” value (Parp16) was 1,1. For the same molecule, the “*fold change 5, gene expression level Parp 16” value (Parp16) was 1,4, the “*fold change 1, gene expression level Nme6” value (Nme6) was 1,1 and the “*fold change 2, gene expression level Nme6” value (Nme6) was -1,2. For the same molecule, the “*fold change 3, gene expression level Nme6” value (Nme6) was 1,0, the “*fold change 4, gene expression level Nme6” value (Nme6) was 1,1 and the “*fold change 5, gene expression level Nme6” value (Nme6) was 1,2. For the same molecule, the “*fold change 1, gene expression level ABCG5” value (ABCG5) was 1,1, the “*fold change 2, gene expression level ABCG5” value (ABCG5) was 1,1 and the “*fold change 3, gene expression level ABCG5” value (ABCG5) was 1,7. The “*fold change 4, gene expression level ABCG5” value (ABCG5) was -1,3, the “*fold change 5, gene expression level ABCG5” value (ABCG5) was -1,6 and the “*fold change 1, gene expression level ABCG8” value (ABCG8) was 1,0. For the same molecule, the “*fold change 2, gene expression level ABCG8” value (ABCG8) was -1,2, the “*fold change 3, gene expression level ABCG8” value (ABCG8) was 1,8 and the “*fold change 4, gene expression level ABCG8” value (ABCG8) was -1,3. The “*fold change 5, gene expression level ABCG8” value (ABCG8) was -1,4, the “*fold change 1, gene expression level Bcl2111” value (Bcl2l11) was 1,3 and the “*fold change 2, gene expression level Bcl2111” value (Bcl2l11) was 1,1. The “*fold change 3, gene expression level Bcl2111” value (Bcl2l11) was 1,1, the “*fold change 4, gene expression level Bcl2111” value (Bcl2l11) was 1,2 and the “*fold change 5, gene expression level Bcl2111” value (Bcl2l11) was 1,1. The “*fold change 1, gene expression level BAAT” value (BAAT) was -1,2, the “*fold change 2, gene expression level BAAT” value (BAAT) was -1,0 and the “*fold change 3, gene expression level BAAT” value (BAAT) was 1,7. For the same molecule, the “*fold change 4, gene expression level BAAT” value (BAAT) was 1,1, the “*fold change 5, gene expression level BAAT” value (BAAT) was -1,4 and the “*fold change 1, gene expression level KLF15” value (KLF15) was 1,3. For the same molecule, the “*fold change 2, gene expression level KLF15” value (KLF15) was -1,0, the “*fold change 3, gene expression level KLF15” value (KLF15) was 1,3 and the “*fold change 4, gene expression level KLF15” value (KLF15) was 1,1. The “*fold change 5, gene expression level KLF15” value (KLF15) was -1,2, the “*fold change 1, gene expression level SERPINE1” value (SERPINE1) was 2,7 and the “*fold change 2, gene expression level SERPINE1” value (SERPINE1) was 2,3. The “*fold change 3, gene expression level SERPINE1” value (SERPINE1) was 2,7, the “*fold change 4, gene expression level SERPINE1” value (SERPINE1) was 1,3 and the “*fold change 5, gene expression level SERPINE1” value (SERPINE1) was 1,9. For the same molecule, the “MW test, gene expression level SERPINE1” value (SERPINE1; Mann-Whitney test vs controls, 5 mice, mouse PCLS, same concentrations as fold change columns) was “* (A p-value <0.05 was considered significant)”, the “*fold change 1, gene expression level Mras” value (Mras) was 1,4 and the “*fold change 2, gene expression level Mras” value (Mras) was 1,3. For the same molecule, the “*fold change 3, gene expression level Mras” value (Mras) was 1,1, the “*fold change 4, gene expression level Mras” value (Mras) was 1,1 and the “*fold change 5, gene expression level Mras” value (Mras) was 1,4. For the same molecule, the “highest concentration that did not cause significant increase of toxicity” value (PCLS; mouse PCLS, LDH, ATP, and protein assay, concentration then used in exposure experiments) was 5 µM.

Source: patent EP2762573A1, “In vitro method for determining cholestatic properties of a compound” (priority 2013, dated 2014)
